Measured values published in patent publication US20230095509A1, “NON-FIBRILLAR HEMOGLOBIN S OLIGOMERS AND METHODS TO IDENTIFY MODULATORS OF HEMOGLOBIN S POLYMERIZATION” (REGENTS OF THE UNIVERSITY OF MINNESOTA, priority 2021, published 2023).
“Also recorded” adds a separate entry of the source.

How the values were obtained:
[1] = molecular target: T1, deoxyHbS oligomers (HbS-rhodamine red / HbS-Cy5) (Homo sapiens, UniProt P68871+P69905, E7V); experiment: Fluorescence lifetime (FLT) FRET assay of deoxyHbS oligomerization (LOPAC screen and dose response); type: biochemical
T1 construct: purchased Sigma
Experimental: Development of HTS platform for identification of small molecules that inhibit in vitro HbS nucleation: Sickle hemoglobin (HbS) (sigma) was labeled with either fluorescent donor (rhodamine red) or acceptor (Cy5) dyes (Thermo fisher scientific) via a cysteine thiol group. For labeling, lyophilized HbS (10 mg/ml) was dissolved in PBS (Sigma) and then centrifuged at 13000 g for five minutes at 4° C. to remove the debris. After centrifugation protein sample was incubated with TCEP (0.5-1 mM) for 20 minutes at room temperature to reduce the cysteine side-chain. This protein mixture was incubated with 1.5 mM dye (dissolved in DMSO or water) for two hours in the dark at room temperature or overnight at 4° C. Unreacted free dye was removed by dialysis against PBS. The degree of labeling was calculated by comparing the absorption of the fluorophore conjugated hemoglobin at 280 nm to the absorbance of the dye at its maximum wavelength. The dye concentration was measured by absorbance, using extinction coefficients of 250,000 M −1 cm -1 for Cy5 conjugates and 88000 M −1 cm -1 for Rhodamine Red conjugates.
High-Throughput Screening of LOPAC Library to Identify Compounds That Inhibit HbS Oligomerization Under Deoxy Condition: The LOPAC compounds (Thermo Fisher Scientific) were received in 96-well plates. Assay plates were prepared by transferring 5 nL of the 10 mM compound stocks or DMSO from the source plates to 1536-well black polypropylene plates (Greiner), using an Echo 550 acoustic dispenser (Labcyte). During screening, donor sample (HbS/Rhodamine Red) was mixed with acceptor (HbS/Cy5) at 1:5 ratios. Then protein samples were dispensed (5 μL, 25 μM) by a Multidrop Combi Reagent Dispenser (Thermo Fisher Scientific) into the 1536-well assay plates containing the compounds and incubated at room temperature for two hours. After incubation, protein samples were degassed for 10-15 minutes using vacuum argon degassing method. Lifetime measurements were taken by the fluorescence lifetime plate reader (Fluorescence Innovations, Inc).
Fluorescence Data Acquisition: We tested the functionality of the HbS FRET pair by measuring lifetimes of oxy-and deoxy HbA and HbS using a fluorescence lifetime plate reader (FIG. 3A). Lifetimes are reciprocally related to FRET, so a decrease in lifetime corresponds to an increase in FRET. Donor fluorescence was excited with a 532 nm laser (Teem Photonics SNG-20F-100, Meylan, France), delivering pulses of -0.3 μJ energy at a 20 kHz repetition rate, and emission was filtered with 546 nm long pass and 586/20 nm band pass filters. This filter was selected to exclude acceptor fluorescence, as only the lifetime of the donor fluorescent protein is required to calculate FRET (Equation (1)). The photomultiplier tube (PMT) voltage was adjusted so that the peak signals of the instrument response function (IRF) and FRET biosensor were similar.
High-Throughput Screening Data Analysis: Time resolve-fluorescence waveforms for each well were fitted with single-exponential decays using least-squares minimization global analysis software (Petersen et al., F2014, Rev Sci Instrum 85, 113101). FRET efficiency (E) was determined as the fractional decrease of donor lifetime (T_D ), due to the presence of acceptor fluorophore (T_DA) using equation 1: […]
These drug compounds were dissolved in DMSO to make 20 mM stock solution. Hits were screened at seven different concentrations. Protein samples were dispensed into the 96-well assay plates and incubated with hit compounds at room temperature for two hours. After incubation, protein samples were degassed for 10 minutes using vacuum argon degassing method. Lifetime measurements were taken by the fluorescence lifetime plate reader (Fluorescence Innovations, Inc).

[2] = molecular target: deoxy-HbS oligomers (sickle hemoglobin, HbS) (Homo sapiens, UniProt P68871+P69905, E7V); experiment: Dynamic light scattering (DLS) of deoxy-HbS oligomers at sub-nucleating concentration; type: biochemical; settings: HbS 25 μM, hit compounds 100 μM, two hours at room temperature, degassed with argon; FIG. 4C
Experimental: (FIG. 4A) Pilot screening with LOPAC library. Compounds that reduced the FRET efficiency below 3SD (black line) were selected for further characterization. […] Fluorescently labeled HbS samples were plated in a 1536 plate and treated separately with DMSO or the three hit compounds, chlormezanone, gabazine, and phosphoramidon disodium, in a dose-dependent manner from 0.1 to 1000 μM for 2 hours at room temperature and then vacuum degassed for 10 minutes, and then donor lifetimes were measured using a fluorescence plate reader. […] HbS samples (25 μM) were incubated separately with hit compounds (100 μM) or DMSO only for two hours at room temperature and degassed with argon for five minutes, and then DLS measurement were taken at room temperature. […] Effect of hit compounds on polymerization of deoxyHbS in high potassium phosphate buffer. Curves represent growth of polymer as a function of time in the presence or absence of drug.

SMILES	FRET efficiency in dose response ([1]; 0.1 to 1000 μM, 2 hours at room temperature, then degassed, FIG. 4B)	size of deoxyHbS oligomers (DLS effective diameter) relative to control [2]	FRET efficiency of HbS under deoxy conditions ([1]; known polymerization inhibitors as controls, FIG. 1D)
CC(C)C[C@H](NP(=O)(O)O[C@@H]1O[C@@H](C)[C@H](O)[C@@H](O)[C@H]1O)C(=O)N[C@@H](Cc1c[nH]c2ccccc12)C(=O)O [phosphoramidon disodium]	decreased FRET efficiency in a dose-dependent manner	significantly decreased the oligomer size	
N[C@@H](Cc1ccccc1)C(=O)O [phenylalanine]			decreased the FRET efficiency; also recorded: reduced FRET efficiency
